# Assay results reported in patent US20130131062A1, “PYRIDAZINONES AND FURAN-CONTAINING COMPOUNDS” (priority 2006, published 2013).
# Tests used:
# H827 = assay: Non Small Cell Lung Cancer Proliferation Assay (Alamar Blue), dose response; settings: Homo sapiens, read-out: H827 Dose Response (uM)
# Method: (§1) To perform the assay, the Non Small Cell Lung Cancer lines are diluted in media and plated into 384 well microplates at a final density of 250 cells in 45 μL.
# (§2) After addition, the cells are placed in cell culture incubator at 37° C. for 48 hours for complete treatment.
# (§3) After drug treatment, cytotoxicity is measured by Alamar Blue reduction.
# (§4) The cells are incubated for 48 hours at 37° C. to complete the Alamar Blue reduction.
# (§5) The final step in the assay is to measure the amount of Alamar Blue reduction. […] The Alamar Blue fluorescence is measured at an excitation of 530 nm and emission of 590 nm.
# (§6) This assay was performed on a fully automated linear track robotic platform (CRS F3 Robot System, Thermo Electron Corp., Ontario, Canada) utilizing several integrated peripherals for plate handling, liquid dispensing, and readout detection. […] The microplates are then placed at 37° C. for 48 hours to complete treatment of cells with compounds. Next, 5 ul of alamar blue was added using a liquid dispenser (FlexDrop Precision Dispenser, Perkin Elmer, Mass., USA) and incubated for 48 hours at 37° C. The alamar blue prompt fluorescence was measured on Victor V (Victor^3 V, Perkin Elmer, Mass., USA) and output data files were loaded into ORIS (Oncology Research Informatics System, MSKCC, NY, USA), a screening data acquisition and analysis platform. […]
# in vitro = settings: human
# Method: NHBE (normal human bronchiolar epithelial cells) are primary cells obtained from donor lungs and commercially available from Cambrex. The HPLID (human peripheral lung epithelial) cell line has been immortalized with the SV40 large T-antigen. WI-38: human lung fibroblast cell line. HPLID, NHBE and WI-38 cells will serve as controls in the chemical screens. WT: wildtype; WT*: over-expressed wildtype.
# Compounds were tested in dose response studies from 10 μM to 5 nM against several non small cell lung cancer lines: H358, H827, H1118, H1650, H1734, H1975, H2030, and H3255, and were also studied in a 72 hour cytotoxicity assay against the NHBE and WI-38 cell lines.
# H1118 = assay: Non Small Cell Lung Cancer Proliferation Assay (Alamar Blue), dose response; settings: Homo sapiens, read-out: H1118 Dose Response (uM)
# Method: as §1, §2, §3, §4, §5, §6
# H1734 = assay: as above; settings: Homo sapiens, NCI-H1734, read-out: H1734 Dose Response (uM)
# Method: as §1, §2, §3, §4, §5, §6
# H358 = assay: as above; settings: Homo sapiens, NCI-H358, read-out: H358 Dose Response (uM)
# Method: as §1, §2, §3, §4, §5, §6
smiles,measurement,setting,value
Cc1ccccc1-n1ncc(Cl)c(Cl)c1=O [compound 257017],IC50,H827,0.71 µM
same,IC50 at 72 h,in vitro,7.52 µM
same,IC50 at 72 h,in vitro; NHBE CytoTox (uM),5.17 µM
same,IC50,H1118,0.49 µM
same,IC50,H1734,3.2 µM
same,IC50,H358,0.74 µM
